According to US10543212B2, “Substituted amines for treating cardiac diseases” (Cardurion Pharmaceuticals, LLC, priority 2017, dated 2020):

These molecules were tested against T1, Full-length, GST-tagged, human CaMKIIδ (Homo sapiens, UniProt Q13557) (assay: CaMKIIδ binding assay (TR-FRET with BODIPY-labeled probe ligand)). Settings: CaMKIIδ binding assay, results of Table 2.
T1 construct: Full-Length, Glutathione-S-Transferase(GST)-Tagged, Human CaMKIIδ was purchased from Carna Biosciences; purchased Carna Biosciences 02-111
T1 sequence (Q13557 1-478 isoform Q13557-12): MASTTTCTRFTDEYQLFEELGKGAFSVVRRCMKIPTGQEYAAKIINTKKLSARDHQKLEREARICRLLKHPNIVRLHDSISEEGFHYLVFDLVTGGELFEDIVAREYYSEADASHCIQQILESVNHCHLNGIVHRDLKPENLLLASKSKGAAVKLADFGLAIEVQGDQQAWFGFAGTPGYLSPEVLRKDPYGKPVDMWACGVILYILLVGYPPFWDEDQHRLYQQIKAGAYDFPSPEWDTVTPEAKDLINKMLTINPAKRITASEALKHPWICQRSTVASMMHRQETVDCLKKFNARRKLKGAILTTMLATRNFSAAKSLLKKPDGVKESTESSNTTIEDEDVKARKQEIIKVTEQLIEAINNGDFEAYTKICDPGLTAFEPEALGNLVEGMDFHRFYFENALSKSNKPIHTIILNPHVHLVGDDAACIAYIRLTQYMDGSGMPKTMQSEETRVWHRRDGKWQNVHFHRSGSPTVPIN
In short: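 Compounds were tested as 4-fold, eight-point series for 1 hr at room temperature, and IC50 was obtained by logistic fitting against a 3 μM parent-compound control. Signal came from displacement of a 300 nM BODIPY ligand from 0.5 nM GST-CaMKIIδ, detected via Tb-anti-GST in calmodulin/Ca2+ (pH 7.6).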
COc1cc2cc[nH]c2cc1Nc1ncc(-c2ccc(Cl)c(O[C@@H](C)Cn3cnnn3)c2)cn1 [Example 496, (S)-N-(5-(3-((1-(1H-tetrazol-1-yl)propan-2-yl)oxy)-4-chlorophenyl)pyrimidin-2-yl)-5-methoxy-1H-indol-6-amine] showed an IC50 of 10 to 100 nM.
For COc1cc2c(cc1Nc1ncc(-c3ccc(Cl)c(O[C@@H](C)Cn4cnnn4)c3)cn1)N(C(=O)CN(C)C)CC2 [Example 497, (S)-1-(6-((5-(3-((1-(1H-tetrazol-1-yl)propan-2-yl)oxy)-4-chlorophenyl)pyrimidin-2-yl)amino)-5-methoxyindolin-1-yl)-2-(dimethylamino)ethan-1-one], the IC50 was < 10 nM.
With COc1cc2c(cc1Nc1ncc(-c3ccc(Cl)c(O[C@@H](C)Cn4cnnn4)c3)cn1)N(C(=O)CN1CCOCC1)CC2 [Example 498, (S)-1-(6-((5-(3-((1-(1H-tetrazol-1-yl)propan-2-yl)oxy)-4-chlorophenyl)pyrimidin-2-yl)amino)-5-methoxyindolin-1-yl)-2-morpholinoethan-1-one] the IC50 was ≥ 100 nM.
For COc1cc2c(cc1Nc1ncc(-c3ccc(Cl)c(O[C@@H](C)Cn4cnnn4)c3)cn1)CN(CC1COC1)CC2 [Example 499, (S)-N-(5-(3-((1-(1H-tetrazol-1-yl)propan-2-yl)oxy)-4-chlorophenyl)pyrimidin-2-yl)-6-methoxy-2-(oxetan-3-ylmethyl)-1,2,3,4-tetrahydroisoquinolin-7-amine], the IC50 was < 10 nM.
COCC(=O)N1CCc2cc(OC)c(Nc3ncc(-c4ccc(Cl)c(O[C@@H](C)Cn5cnnn5)c4)cn3)cc2C1 [Example 500, (S)-1-(7-((5-(3-((1-(1H-tetrazol-1-yl)propan-2-yl)oxy)-4-chlorophenyl)pyrimidin-2-yl)amino)-6-methoxy-3,4-dihydroisoquinolin-2(1H)-yl)-2-methoxyethan-1-one] gave an IC50 of 10 to 100 nM.
COc1cc2c(cc1Nc1ncc(-c3ccc(Cl)c(O[C@@H](C)Cn4cnnn4)c3)cn1)CN(C(=O)CN1CCOCC1)CC2 [Example 501, (S)-1-(7-((5-(3-((1-(1H-tetrazol-1-yl)propan-2-yl)oxy)-4-chlorophenyl)pyrimidin-2-yl)amino)-6-methoxy-3,4-dihydroisoquinolin-2(1H)-yl)-2-morpholinoethan-1-one] was tested, and the IC50 was 10 to 100 nM.
With COc1cc2c(cc1Nc1ncc(-c3ccc(Cl)c(O[C@@H](C)Cn4cnnn4)c3)cn1)CN(C1CCOCC1)CC2 [Example 502, (S)-N-(5-(3-((1-(1H-tetrazol-1-yl)propan-2-yl)oxy)-4-chlorophenyl)pyrimidin-2-yl)-6-methoxy-2-(tetrahydro-2H-pyran-4-yl)-1,2,3,4-tetrahydroisoquinolin-7-amine] the IC50 was < 10 nM.
COc1cc2c(cc1Nc1ncc(-c3ccc(Cl)c(O[C@@H](C)Cn4cnnn4)c3)cn1)N(CC1COC1)CC2 [Example 503, (S)-N-(5-(3-((1-(1H-tetrazol-1-yl)propan-2-yl)oxy)-4-chlorophenyl)pyrimidin-2-yl)-5-methoxy-1-(oxetan-3-ylmethyl)indolin-6-amine] showed an IC50 of 10 to 100 nM.
COc1cc2c(cc1Nc1ncc(-c3ccc(Cl)c(O[C@@H](C)Cn4cnnn4)c3)cn1)CN(c1ccnc(C)n1)CC2 [Example 504, (S)-N-(5-(3-((1-(1H-tetrazol-1-yl)propan-2-yl)oxy)-4-chlorophenyl)pyrimidin-2-yl)-6-methoxy-2-(2-methylpyrimidin-4-yl)-1,2,3,4-tetrahydroisoquinolin-7-amine] was tested, and the IC50 was 10 to 100 nM.
COc1cc2c(cc1Nc1ncc(-c3ccc(Cl)c(O[C@@H](C)Cn4cnnn4)c3)cn1)CCN(c1ccnc(C)n1)C2 [Example 505, (S)-N-(5-(3-((1-(1H-tetrazol-1-yl)propan-2-yl)oxy)-4-chlorophenyl)pyrimidin-2-yl)-7-methoxy-2-(2-methylpyrimidin-4-yl)-1,2,3,4-tetrahydroisoquinolin-6-amine] gave an IC50 of 10 to 100 nM.
COc1cc2c(cc1Nc1ncc(-c3ccc(Cl)c(O[C@@H](C)Cn4cnnn4)c3)cn1)CCN(CC(=O)O)C2 [Example 506, (S)-2-(6-((5-(3-((1-(1H-tetrazol-1-yl)propan-2-yl)oxy)-4-chlorophenyl)pyrimidin-2-yl)amino)-7-methoxy-3,4-dihydroisoquinolin-2(1H)-yl)acetic acid] was tested, and the IC50 was < 10 nM.
With C[C@@H](Cn1cnnn1)Oc1cc(-c2cnc(Nc3cc4c(cc3Cl)CCNCC4)nc2)ccc1Cl [Example 507, (S)-N-(5-(3-((1-(1H-tetrazol-1-yl)propan-2-yl)oxy)-4-chlorophenyl)pyrimidin-2-yl)-8-chloro-2,3,4,5-tetrahydro-1H-benzo[d]azepin-7-amine] the IC50 was < 10 nM.
With COc1cnc(C2CCC(F)(F)CC2)cc1Nc1ncc(-c2ccc(Cl)c(O[C@@H](C)Cn3cnnn3)c2)cn1 [Example 508, (S)-5-(3-((1-(1H-tetrazol-1-yl)propan-2-yl)oxy)-4-chlorophenyl)-N-(2-(4,4-difluorocyclohexyl)-5-methoxypyridin-4-yl)pyrimidin-2-amine] the IC50 was ≥ 100 nM.
With Cc1cnc(N2CCC(N3CCOCC3)CC2)cc1Nc1ncc(-c2ccc(C#N)c(O[C@@H](C)Cn3cnnn3)c2)cn1 [Example 509, (S)-2-((1-(1H-tetrazol-1-yl)propan-2-yl)oxy)-4-(2-((5-methyl-2-(4-morpholinopiperidin-1-yl)pyridin-4-yl)amino)pyrimidin-5-yl)benzonitrile] the IC50 was 10 to 100 nM.
For COc1cc2c(cc1Nc1ncc(-c3ccc(Cl)c(O[C@@H](C)Cn4cnnn4)c3)cn1)CN(CC(C)=O)CC2 [Example 510, (S)-1-(7-((5-(3-((1-(1H-tetrazol-1-yl)propan-2-yl)oxy)-4-chlorophenyl)pyrimidin-2-yl)amino)-6-methoxy-3,4-dihydroisoquinolin-2(1H)-yl)propan-2-one], the IC50 was < 10 nM.
COc1cc2c(cc1Nc1ncc(-c3ccc(Cl)c(O[C@@H](C)Cn4cnnn4)c3)cn1)CN(CCO)CC2 [Example 511, (S)-2-(7-((5-(3-((1-(1H-tetrazol-1-yl)propan-2-yl)oxy)-4-chlorophenyl)pyrimidin-2-yl)amino)-6-methoxy-3,4-dihydroisoquinolin-2(1H)-yl)ethan-1-ol] was tested, and the IC50 was < 10 nM.
Work on COc1cc2c(cc1Nc1ncc(-c3ccc(Cl)c(O[C@@H](C)Cn4cnnn4)c3)cn1)C(=O)N(CCN(C)C)C2 [Example 512, (S)-6-((5-(3-((1-(1H-tetrazol-1-yl)propan-2-yl)oxy)-4-chlorophenyl)pyrimidin-2-yl)amino)-2-(2-(dimethylamino)ethyl)-5-methoxyisoindolin-1-one] yielded an IC50 of 10 to 100 nM.
C[C@@H](Cn1cnnn1)Oc1cc(-c2cnc(Nc3cc4c(cc3Cl)CCN(C3COC3)CC4)nc2)ccc1Cl [Example 513, (S)-N-(5-(3-((1-(1H-tetrazol-1-yl)propan-2-yl)oxy)-4-chlorophenyl)pyrimidin-2-yl)-8-chloro-3-(oxetan-3-yl)-2,3,4,5-tetrahydro-1H-benzo[d]azepin-7-amine] was tested, and the IC50 was < 10 nM.
CCN(C)CC(=O)N1CCc2cc(Nc3ncc(-c4ccc(Cl)c(O[C@@H](C)Cn5cnnn5)c4)cn3)c(OC)cc2C1 [Example 514, (S)-1-(6-((5-(3-((1-(1H-tetrazol-1-yl)propan-2-yl)oxy)-4-chlorophenyl)pyrimidin-2-yl)amino)-7-methoxy-3,4-dihydroisoquinolin-2(1H)-yl)-2-(ethyl(methyl)amino)ethan-1-one] was tested, and the IC50 was < 10 nM.
Work on CCc1cc2c(cc1Nc1ncc(-c3ccc(Cl)c(O[C@@H](C)Cn4cnnn4)c3)cn1)CN(C1COC1)CC2 [Example 515, (S)-N-(5-(3-((1-(1H-tetrazol-1-yl)propan-2-yl)oxy)-4-chlorophenyl)pyrimidin-2-yl)-6-ethyl-2-(oxetan-3-yl)-1,2,3,4-tetrahydroisoquinolin-7-amine] yielded an IC50 of 10 to 100 nM.
CCc1cc2c(cc1Nc1ncc(-c3ccc(C#N)c(O[C@@H](C)Cn4cnnn4)c3)cn1)CN(C1COC1)CC2 [Example 516, (S)-2-((1-(1H-tetrazol-1-yl)propan-2-yl)oxy)-4-(2-((6-ethyl-2-(oxetan-3-yl)-1,2,3,4-tetrahydroisoquinolin-7-yl)amino)pyrimidin-5-yl)benzonitrile] was tested, and the IC50 was 10 to 100 nM.
Work on COc1cnc(C2CCOCC2)cc1Nc1ncc(-c2ccc(Cl)c(O[C@@H](C)Cn3cnnn3)c2)cn1 [Example 517, (S)-5-(3-((1-(1H-tetrazol-1-yl)propan-2-yl)oxy)-4-chlorophenyl)-N-(5-methoxy-2-(tetrahydro-2H-pyran-4-yl)pyridin-4-yl)pyrimidin-2-amine] yielded an IC50 of 10 to 100 nM.
For COCCN1CCc2cc(OC)c(Nc3ncc(-c4ccc(Cl)c(O[C@@H](C)Cn5cnnn5)c4)cn3)cc2C1 [Example 518, (S)-N-(5-(3-((1-(1H-tetrazol-1-yl)propan-2-yl)oxy)-4-chlorophenyl)pyrimidin-2-yl)-6-methoxy-2-(2-methoxyethyl)-1,2,3,4-tetrahydroisoquinolin-7-amine], the IC50 was < 10 nM.
In the case of COc1cc2c(cc1Nc1ncc(-c3ccc(Cl)c(O[C@@H](C)Cn4cnnn4)c3)cn1)CN(C(=O)COC(C)=O)CC2 [Example 519, (S)-2-(7-((5-(3-((1-(1H-tetrazol-1-yl)propan-2-yl)oxy)-4-chlorophenyl)pyrimidin-2-yl)amino)-6-methoxy-3,4-dihydroisoquinolin-2(1H)-yl)-2-oxoethyl acetate], the IC50 is reported as 10 to 100 nM.
With COc1cc2c(cc1Nc1ncc(-c3ccc(Cl)c(O[C@@H](C)Cn4cnnn4)c3)cn1)CN(C(=O)C(C)(C)OC(C)=O)CC2 [Example 520, (S)-1-(7-((5-(3-((1-(1H-tetrazol-1-yl)propan-2-yl)oxy)-4-chlorophenyl)pyrimidin-2-yl)amino)-6-methoxy-3,4-dihydroisoquinolin-2(1H)-yl)-2-methyl-1-oxopropan-2-yl acetate] the IC50 was ≥ 100 nM.
COc1cc2c(cc1Nc1ncc(-c3ccc(Cl)c(O[C@@H](C)Cn4cnnn4)c3)cn1)CN(C(=O)C(C)(C)O)CC2 [Example 521, (S)-1-(7-((5-(3-((1-(1H-tetrazol-1-yl)propan-2-yl)oxy)-4-chlorophenyl)pyrimidin-2-yl)amino)-6-methoxy-3,4-dihydroisoquinolin-2(1H)-yl)-2-hydroxy-2-methylpropan-1-one] gave an IC50 of 10 to 100 nM.
